Data on one compound can be found in US10996215B2, “Methods for determining drug efficacy for the treatment of diffuse large B-cell lymphoma, multiple myeloma, and myeloid cancers” (CELGENE CORPORATION, priority 2013, dated 2021).

One experiment has as its system ABC-DLBCL cell line. As to the kind of experiment: Tandem Mass Tag proteomics, lenalidomide vs Compound A. The conditions noted are these: 24 h. It counts as cell-based. An excerpt:
Cells were harvested and proteins were fractionated using a basic pH reverse gradient method. Fractionated samples were labeled using a Tandem Mass Tag method.

Another experiment relates to Aiolos, Ikaros, ZFP91. The experiment can be described thus: CRBN dependence of ZFP91 reduction in U266 cells, Western blot. It counts as cell-based. The conditions noted are these: 6 hour. The protocol: U266 cells were transduced with inducible shRNA constructs targeting CRBN or targeting luciferase as control. Cells were grown in the presence or in the absence of 10 ng/ml Doxycycline, and in the presence or in the absence of 1 μM pomalidomide. Cells were harvested and were treated in cell lysis buffer to generate cell lysates. Proteins from cell lysate were separated by gel electrophoresis and transferred to nitrocellulose membranes. Immunoblots were then probed with antibodies recognizing Aiolos, CRBN, Ikaros, ZFP91, IRF4, IFIT1, IFIT3, P-STAT1, and β-actin (Li-Cor).
Cells were harvested, and lysates were run on 10% SDS-PAGE and immunoblotted with the appropriate antibodies.
MG132 activates c-Jun N-terminal kinase (JNK1), which initiates apoptosis. […] MLN4924 is a NAE1 inhibitor that blocks the activity of Cullin Ring Ligases (CRLs), such as CRL4^CRBN. […] Cells were harvested and lysates were run on 10% SDS-PAGE, transferred to nitrocellulose and immunoblotted with the corresponding antibodies.
For orientation: Immunoblotting shows a protein as a band on a membrane.

Experiment [1] relates to Aiolos, Ikaros, IRF4, Cereblon. As to the kind of experiment: Western blot of Aiolos, Ikaros, IRF4, Cereblon in DLBCL cell lines. It counts as cell-based, human. The procedure:
Immunoblots were probed with antibodies recognizing: Aiolos, Ikaros, Cereblon, IRF4, c-myc, CD44, EZH2, EBF 1, PU. 1, and β-actin. Signals were detected with a LI-COR imager
The following steps can be performed to harvest cells in preparation for Western Blot analysis. The steps are performed on ice and any centrifugation is performed in a 4° C. refrigerated centrifuge. RIPA lysis buffer (Pierce, cat #89900) is first prepared by adding […] proteinase inhibitors (Pierce, cat #78443) to 1 mL of RIPA buffer. Subsequently, cells are washed once in ice-cold phosphate buffered saline (PBS). The cells are then lysed with 0.25 mL RIPA lysis buffer. The PBMCs are placed on ice for 30 minutes and vortexed every 10 minutes. Lysates are frozen and stored at −80° C. prior to further processing.
Lysates are placed in a QIAshredder® tube (QIAGEN, cat #79656) and spun down 30 sec, top speed (13200 rpm) in an Eppendorf benchtop centrifuge (Model 5415 R). The lysate is then transferred to a 1.5 mL clear Eppendorf tube and spun down 10 min at top speed. The supernatent is collected without disturbing the cell debris pellet. The supernatent is dry ice frozen and stored at −80° C. prior to analysis.
The protein concentration in supernatent is measured using BCA assay and the expected protein yield is about 0.5-5 μg/μL, or 125-1250 μg total. Approximately ≥10 μg protein per lane is loaded for western blotting (IRF4, IKZF3, etc.) using antibodies against the human proteins.
Membranes are immunblotted with anti-Aiolos (Santa Cruz Biotechnology, Dallas, Tex.), anti-Ikaros (Millipore, Billerica, Mass.) and anti-Actin (Sigma, St. Louis, Mo.; or LI-COR Biosciences, Lincoln, Nebr.) and secondary antibodies (LI-COR Biosciences, Lincoln, Nebr.). The blots are analyzed on Odyssey imager (LI-COR Biosciences, Lincoln, Nebr.).

The test system of the next experiment is IFN pathway. As to the kind of experiment: effect on IFN pathway (FIG. 13). It counts as cell-based.
The test system of another experiment is IRF7, IFN response. As to the kind of experiment: IFN response, Western blot of IRF7 in U2932 (ABC) cells. It counts as cell-based. The procedure:
U2932 (ABC) cells were cultured and cell-passaged long-term in Compound A as described in Section 6.10. Levels of Aiolos, IRF7, and β-actin (control) were assessed using Western blotting, essentially as described above in Section 6.8.

The next experiment relates to MDS-L. The experiment can be described thus: 4 d BrdU cell assay / tritiated thymidine, sensitivity. It counts as cell-based. The conditions noted are these: FIG. 22B. The procedure: (§1) Sensitivity to lenalidomide treatment in a panel of myeloid cancer cell lines was evaluated by tritiated thymidine and/or BrdU assays.
Another experiment has as its system HNT-34. Described as above. It counts as cell-based. The note with it: FIG. 22B. The procedure: as §1
The next experiment relates to CSNK1A1 (CK1α), Ikaros. The experiment can be described thus: MG-132, MLN-4924 or Compound A pre-treatment, Western analysis in HNT-34 cells. It counts as cell-based. The conditions noted are these: 10 μM Compound A 1.5 h, 0.3 μM or less lenalidomide, 3 h or 6 h.
Another experiment has as its system Aiolos, Ikaros. The experiment can be described thus: FFPE IHC for Aiolos and Ikaros in WSU-DLCL2 xenograft tumors. It counts as in vivo. The conditions noted are these: WSU-DLCL2 xenograft SCID mice, 30 mg/kg qd. The procedure:
WSU-DLCL2 xenograft SCID mice can be prepared using methods known in the art. In brief, female CB17 severe combined immunodeficiency (SCID) mice (6-12 weeks old) are obtained from the Charles River Laboratory (Wilmington, Mass.) and maintained in microisolator cages under sterile conditions. A total of 10×10^6 WSU-DLCL2 DLBCL cells in 100% Matrigel® (Becton Dickinson, San Jose, Calif.) are injected subcutaneously into the right flank of mice. Mice are monitored 2 or 3 times a week for the appearance of tumors.
WSU-DLCL2 xenograft SCID mice (a human tumor xenograft model) were treated with either vehicle or 30 mg/kg Compound A q.d. Tumor samples were harvested at 1 hour, 6 hours, or 24 hours after the last dose.
Immunohistochemistry was performed using standard methods. For example, immunohistochemistry is performed on the Bond-Max™ automated slide stainer (Leica Microsystems) using the associated Bond™ Polymer Refine Detection Kit. Four micron thick FFPE sections are deparaffinized on the instrument. Antigen retrieval is performed with Epitope Retrieval™ 2 (pH 9.0) for 20 minutes at 100° C. The slides are blocked for endogenous peroxidase activity with Peroxide Block for 5 minutes at room temperature. […]

Regarding `Cc1nc2cccc(N)c2c(=O)n1C1CCC(=O)NC1=O` (centres unmarked) [Compound A, 3-(5-amino-2-methyl-4-oxo-4H-quinazolin-3-yl)-piperidine-2,6-dione], the “overall effect on protein abundance compared to lenalidomide” value in the experiment on ABC-DLBCL cell line (10 uM each, log2 ratios vs DMSO) was “generally stronger effect”. For the same compound, the “gradient of regression line, log2 ratios of lenalidomide and Compound A plotted against each other” value in the experiment with ABC-DLBCL cell line (10 uM each, r2=0.752, intercept 0.03) is reported as 1.45. Also, in the experiment with ABC-DLBCL cell line (ABC-DLBCL cell line, 10 uM, vs DMSO), the “effect on CSNK1A1 protein” value is listed as “does not appear to affect”. The “destruction of Aiolos, Ikaros, and ZFP91 (CRBN dependent pathway)” value in the experiment with Aiolos, Ikaros, ZFP91 is recorded as “induced”. In addition, in experiment [1] (DLBCL cell lines, 1 μM or 10 μM, within 72 hours), the IRF4 levels result is “reduce”. Besides, in experiment [1] (Karpas 422 (GCB) and TMD8 (ABC), 10 μM, 1, 6 or 12 hours, vs DMSO), the Aiolos levels entry is reported as “decrease”. In addition, the “Aiolos and Ikaros levels” value in experiment [1] (WSU-DLCL2 (GCB) and OCI-LY10 (ABC), 10 μM, 1, 6 or 12 hours, vs DMSO) is recorded as “decreasing”. Also, in experiment [1] (nine GCB and ABC DLBCL cell lines, 1 μM or 10 μM, 72 hours), the CRBN levels entry is listed as “remained constant”. For the same compound, the “Aiolos and Ikaros levels” value in experiment [1] (nine GCB and ABC DLBCL cell lines, 1 μM or 10 μM, 72 hours, vs DMSO) was “decreasing”. Besides, the “IFIT1, IFIT3, DDX58, XAF1, IFIH1, and OAS3 protein expression” value in the experiment with IFN pathway (FIG. 13A) is reported as “upregulates”. The “DDX58, IFI27, IFIT1, IFIT3, DDX58, and XAF1 gene expression” value with IFN pathway (FIG. 13B) is “upregulates”. For the same compound, the “ISG15 and OAS3 gene expression” value in the experiment on IFN pathway (FIG. 13C) was “upregulates”. Also, the IRF changes result in the experiment with IFN pathway (FIG. 13E) was “induces”. In the experiment on IFN pathway (FIG. 13F), the “IFIT1 and IFIT3 protein expression” value is listed as “upregulates”; the IKKE protein level entry is reported as “reduces”; the “TBK1 phosphorylation (TBK1-PO4)” value is “upregulates”. Also, in the experiment with IFN pathway (FIG. 13G), the “levels of STAT or phosphorylated STAT” value is “induces changes”. Besides, the “IFN response gene expression” value in the experiment on IRF7, IFN response (FIG. 10A) is “up-regulates”. The IRF7 protein expression entry in the experiment with IRF7, IFN response (U2932 (ABC), Western blot) is reported as “upregulates”. In addition, the “sensitivity of MDS-L cells” value in the experiment on MDS-L is “sensitive”. In addition, the “sensitivity of HNT-34 cells” value in the experiment on HNT-34 is on record as “only MDS-L cells were sensitive to Compound A”. In addition, the “lenalidomide induced CSNK1A1 degradation after Compound A pre-treatment” value in the experiment with CSNK1A1 (CK1α), Ikaros was “blocks”. In addition, the “time to Aiolos and Ikaros degradation in tumor” value in the experiment on Aiolos, Ikaros is at most 6 h.
